Laboratory results reported in US20220204473A1, “COMPOUND AS IRAK INHIBITOR” (SHANGHAI MEIYUE BIOTECH DEVELOPMENT CO., LTD., priority 2018, published 2022).

Columns and labels:
CYP2C19 = target: T1, CYP2C19 (Homo sapiens, UniProt P33261); experiment: CYP450 inhibition in human liver microsomes, CYP2C19; assay type: in vitro ADME; conditions: human liver microsomes, probe mephenytoin; read-out: IC50, subtype 2C19
T1 construct: tissue Corning (USA); host or cells: mixed human liver microsomes
Method: (§1) This study was intended to investigate the inhibitory effect of the test compounds on five major CYP450 enzyme subtypes CYP1A2, 2C9, 2C19, 2D6 and 3A4 in human liver microsomes. The mixed human liver microsomes used in this assay were purchased from Corning (USA). The test compounds were co-incubated at 7 concentrations with human liver microsomes and five probe substrates (phenacetin for CYP1a2, diclofenac for CYP2C9, mephenytoin for CYP2C19, dextromethorphan for CYP2D6, midazolam for CYP3A4-M, mixed). The reaction was initiated by adding coenzyme NADPH, and terminated by adding acetonitrile containing internal standard. After the proteins were precipitated, the supernatant was centrifuged. The characteristic metabolites in the supernatant (acetaminophen for CYP1A2, 4-hydroxydiclofenac for CYP2C9, 4-hydroxymephenytoin for CYP2C19, dextrorphan for CYP2D6, 1-hydroxymidazolam for CYP3A4-M) were analyzed by LC-MS/MS. The influence of the test compounds on production of the characteristic metabolites was finally analyzed on the basis of the data obtained. A selective inhibitor (ketoconazole for CYP3A4-M) was used as positive control. All samples were tested in duplicate.

CYP2C9 = target: T2, CYP2C9 (Homo sapiens, UniProt P11712); experiment: CYP450 inhibition in human liver microsomes, CYP2C9; assay type: in vitro ADME; conditions: human liver microsomes, probe diclofenac; read-out: IC50, subtype 2C9
T2 construct: tissue Corning (USA); host or cells: mixed human liver microsomes
Method: as §1

CYP3A4 = target: T3, CYP3A4 (Homo sapiens, UniProt P08684); experiment: CYP450 inhibition in human liver microsomes, CYP3A4; assay type: in vitro ADME; conditions: human liver microsomes, probe midazolam; read-out: IC50, subtype 3A4
T3 construct: tissue Corning (USA); host or cells: mixed human liver microsomes
Method: as §1

CYP2D6 = target: T4, CYP2D6 (Homo sapiens, UniProt P10635); experiment: CYP450 inhibition in human liver microsomes, CYP2D6; assay type: in vitro ADME; conditions: human liver microsomes, probe dextromethorphan; read-out: IC50, subtype 2D6
T4 construct: tissue Corning (USA); host or cells: mixed human liver microsomes
Method: as §1

[1] = system: IL-6 release in LPS-induced Balb/c female mice; experiment: Inhibition of IL-6 release in LPS-induced Balb/c female mice; assay type: in vivo, mouse; design: concentration or dose not given beside the values; conditions: administered 5 h before LPS induction, serum
Method: Objective of the test: To determine the inhibitory effect of the compounds by measuring the plasma IL-6 concentration in a Balb/c mouse model with LPS-induced inflammation.
2.1 Prepared mouse serum samples (sample batch no. 20181218)
4.1 Reagent kit was equilibrated at room temperature (25-28° C.) for 20 min. After each detection, the remaining reagents were stored at 4° C.
4.3 Preparing reference standard: 1 vial of reference standard substance was added with labeled volume of reference standard diluent. The mixtures were incubated for 15 min at room temperature. Then the mixtures were gently mixed to completely dissolve the substance to prepare a reference standard stock at a final concentration of 1000 μg/mL.
4.4 Dilution of samples: The sample in each group was diluted by […], i.e., a 2-fold dilution with sample assay buffer followed by another two-fold dilution with standard diluent.
4.5 The diluted samples or standards of different concentrations were added into corresponding wells at 100 μL/well respectively, and a background correcting well (or a blank well) was set by adding only TMB buffer and terminating solution. The wells were sealed with a transparent film and incubated at room temperature for 120 min.
4.6 The plate was subjected to 5 washes, each with 300 μL of washing buffer for 15-30 sec. The plate was dried on thick absorbent paper after the last wash.
4.7 Biotinylated antibody was added at 100 μL/well (Note: the biotinylated antibody was prepared in advance and could be used directly without further dilution). The wells were sealed with a transparent film and incubated at room temperature for 60 min.
4.8 The plate was subjected to 5 washes, each with 300 μL of washing buffer for 15-30 sec. The plate was dried on thick absorbent paper after the last wash.
4.9 Horseradish peroxidase-labeled streptavidin was added at 100 μL/well. The wells were sealed with a white film and incubated away from light at room temperature for 20 min.
4.10 The plate was subjected to 5 washes, each with 300 μL of washing buffer for 15-30 sec. The plate was dried on thick absorbent paper after the last wash.
4.11 The chromogenic reagent TMB was added 100 μL/well. The wells were sealed with a white film and incubated away from light at room temperature for 20 min.
4.12 The terminating solution was added at 50 μL/well and A450 value was measured right after mixing.

[2] = system: cytokine TNF-α in LPS-induced human PBMCs; experiment: Inhibition of cytokine TNF-α in LPS-induced human PBMC (ELISA); assay type: cell-based; conditions: 0.1 μg/mL LPS for 4 h
Method: Procedures: Cytokine production in human PBMCs (peripheral blood mononuclear cells) was induced by LPS (lipopolysaccharide) in vitro, and the inhibitory effect of the compounds on induced cytokine production in human PBMCs was investigated.
Fresh human PBMC was centrifuged for 10 min at room temperature at 450×g and the supernatant was discarded. The PBMC was resuspended in complete RPMI 1640 medium.
The assay was performed in complete medium. PBMC was seeded at a density of 1×10^5 cells/well into a 96-well plate. The compounds according to the present disclosure were serially diluted in an isotonic 100% DMSO solution to 8 concentrations from 20 μM to 0.002 nM respectively, with the final DMSO concentration being 0.25%. Cells were pre-incubated with the formulated compounds for 30 min at 37° C. prior to stimulation. To induce cytokine secretion, cells were stimulated with 0.1 μg/mL LPS (Sigma, Escherichia coli O111:B4) for 4 h at 37° C. The cell culture supernatant was then separated by centrifugation at 450×g for 10 min at room temperature.
The amount of secreted TNF-α in the supernatants was determined using the human TNF-α ELISA kit according to the manufacturer's instruction.
The readings of absorbance at A450 were measured with a microplate reader SpectraMax i3x (Molecular Device) for calculating the inhibition of the compounds, and IC50 values were calculated with GraphPad Prism 7.0 software respectively.

T4 sequence (P10635 whole entry): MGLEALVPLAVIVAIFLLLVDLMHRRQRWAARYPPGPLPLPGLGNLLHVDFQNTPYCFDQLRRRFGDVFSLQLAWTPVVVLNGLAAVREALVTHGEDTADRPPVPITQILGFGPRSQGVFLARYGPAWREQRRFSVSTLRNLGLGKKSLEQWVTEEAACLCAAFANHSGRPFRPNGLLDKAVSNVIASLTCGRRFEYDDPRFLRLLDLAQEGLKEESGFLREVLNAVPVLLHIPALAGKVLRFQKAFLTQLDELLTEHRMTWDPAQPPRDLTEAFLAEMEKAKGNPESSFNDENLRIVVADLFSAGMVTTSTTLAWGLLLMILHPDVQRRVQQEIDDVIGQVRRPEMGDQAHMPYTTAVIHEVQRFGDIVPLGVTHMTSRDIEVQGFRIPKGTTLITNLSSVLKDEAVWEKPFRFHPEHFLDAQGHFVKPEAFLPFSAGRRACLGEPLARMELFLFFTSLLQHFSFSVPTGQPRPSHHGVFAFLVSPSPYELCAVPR
T3 sequence (P08684 whole entry): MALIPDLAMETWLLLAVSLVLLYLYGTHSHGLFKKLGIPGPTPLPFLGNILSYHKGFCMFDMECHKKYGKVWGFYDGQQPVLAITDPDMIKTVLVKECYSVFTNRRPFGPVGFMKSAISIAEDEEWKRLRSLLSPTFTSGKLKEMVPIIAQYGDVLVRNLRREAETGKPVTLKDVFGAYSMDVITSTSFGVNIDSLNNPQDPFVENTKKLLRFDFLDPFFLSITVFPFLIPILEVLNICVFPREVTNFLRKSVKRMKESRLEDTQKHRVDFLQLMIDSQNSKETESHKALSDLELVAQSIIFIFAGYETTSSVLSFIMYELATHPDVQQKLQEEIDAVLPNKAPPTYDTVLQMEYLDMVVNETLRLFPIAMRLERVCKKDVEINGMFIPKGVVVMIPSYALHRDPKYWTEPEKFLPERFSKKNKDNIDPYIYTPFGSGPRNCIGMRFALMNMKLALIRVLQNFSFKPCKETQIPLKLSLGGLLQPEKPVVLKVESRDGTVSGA
T1 sequence (P33261 whole entry): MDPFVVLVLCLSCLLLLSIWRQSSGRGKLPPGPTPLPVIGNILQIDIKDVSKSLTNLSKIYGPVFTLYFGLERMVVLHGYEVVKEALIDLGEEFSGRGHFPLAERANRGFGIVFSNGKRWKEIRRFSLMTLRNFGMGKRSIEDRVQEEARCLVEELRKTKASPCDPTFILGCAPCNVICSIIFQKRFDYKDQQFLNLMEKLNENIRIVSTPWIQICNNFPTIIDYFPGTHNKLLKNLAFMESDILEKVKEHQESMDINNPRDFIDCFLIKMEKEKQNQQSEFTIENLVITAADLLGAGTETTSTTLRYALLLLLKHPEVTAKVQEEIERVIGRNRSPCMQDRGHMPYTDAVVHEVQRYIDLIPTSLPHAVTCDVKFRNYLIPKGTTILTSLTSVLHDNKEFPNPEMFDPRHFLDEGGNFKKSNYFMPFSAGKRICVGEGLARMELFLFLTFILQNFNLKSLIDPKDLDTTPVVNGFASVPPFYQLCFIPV
T2 sequence (P11712 whole entry): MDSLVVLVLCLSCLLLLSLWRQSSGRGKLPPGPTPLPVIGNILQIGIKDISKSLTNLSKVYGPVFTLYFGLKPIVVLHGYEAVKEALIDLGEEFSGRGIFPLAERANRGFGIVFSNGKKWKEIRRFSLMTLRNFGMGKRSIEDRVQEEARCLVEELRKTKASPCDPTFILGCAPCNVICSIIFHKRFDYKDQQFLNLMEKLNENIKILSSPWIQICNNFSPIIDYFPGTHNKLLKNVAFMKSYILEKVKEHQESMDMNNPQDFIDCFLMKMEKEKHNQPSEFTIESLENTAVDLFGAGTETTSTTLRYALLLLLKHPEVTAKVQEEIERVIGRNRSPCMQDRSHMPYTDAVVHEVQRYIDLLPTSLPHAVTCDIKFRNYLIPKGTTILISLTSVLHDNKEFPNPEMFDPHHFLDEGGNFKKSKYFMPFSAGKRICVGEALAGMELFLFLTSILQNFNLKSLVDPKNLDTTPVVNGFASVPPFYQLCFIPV

Row | IC50 (CYP2C19) | IC50 (CYP2C9) | IC50 (CYP3A4) | IC50 (CYP2D6) | Structure (SMILES) | Inhibition rate of IL-6 [1] | IC50 [2]
1 | > 30 µM | 20.9 µM | > 30 µM | > 30 µM | CC(C)(O)c1cc2nn([C@H]3CC[C@](C)(O)CC3)cc2cc1NC(=O)c1cccc(C(C)(F)F)n1 [MY-004-165] |  | 
2 |  |  |  |  | CN(C)c1cc2nn([C@H]3C[C@H](C(C)(C)O)C3)cc2cc1NC(=O)c1cccc(C(F)(F)F)n1 [MY-004-089] | 94.33% | 165 nM
3 |  |  |  |  | COc1cc2nn([C@H]3CC[C@@](C)(O)CC3)cc2cc1NC(=O)c1cccc(C(F)(F)F)n1 [MY-004-126-2] | 93.39% | 
4 | > 30 µM | > 30 µM | > 30 µM | > 30 µM | COc1cc2nn([C@H]3CC[C@](C)(O)CC3)cc2cc1NC(=O)c1cccc(C(F)(F)F)n1 [MY-004-126-1] | 97.05% | 71.8 nM
5 |  |  |  |  | CN(C)c1cc2nn([C@H]3CC[C@H](O)CC3)cc2cc1NC(=O)c1cccc(C(F)(F)F)n1 [MY-004-153] |  | 191 nM

Row | Structure (SMILES) | IC50 (CYP2C19) | IC50 (CYP2C9) | IC50 (CYP3A4) | IC50 (CYP2D6) | Inhibition rate of IL-6 [1] | IC50 [2]
6 | COc1cc2nn([C@H]3CC[C@H](O)CC3)cc2cc1NC(=O)c1cccc(C(F)(F)F)n1 [MY-004-127-1] | > 30 µM | > 30 µM | > 30 µM | > 30 µM | 83.28% | 
